Data on 13 molecules can be found in ChEMBL document CHEMBL1201862, “PubChem BioAssay data set” (2004).

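Cells were grown in 96-well plates and exposed to each compound for 48 hours at five concentrations; endpoints were interpolated linearly between bracketing concentrations, or set to the highest concentration if not reached. Abbreviation: GI50, concentration required for 50% inhibition of growth.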 Active and inactive are the calls of the source. Rule as the data show it: active = GI50 up to about 1.1 µM and inactive = higher. Bounds are passed on as bounds.

Some test systems named below: IGROV-1; CAKI-1; SN12C; COLO 205; NCI-H522; HCT-15; NCI-H23; OVCAR-3; HCT-116; M14; CCRF-CEM; EKVX; MOLT-4; Malme-3M; HT-29; PC-3; MCF7; DU-145; NCI/ADR-RES.
Experiment in all cases: growth of human tumour cells (NCI), 48 h

In the case of `Nc1nnc(NC(=O)C2=NS(=O)(=O)c3cc(S(N)(=O)=O)c(Cl)cc3N2)[nH]1`, the GI50 in the assay on IGROV-1 was > 100 µM (inactive); in the assay on CAKI-1 it was > 100 µM (inactive); with SN12C it was > 100 µM (inactive); in the assay with COLO 205 it was > 100 µM (inactive); in the assay on NCI-H522, > 100 µM (inactive); with HCT-15, greater than 100 µM. For the same molecule, the GI50 with NCI-H23, in the assay on OVCAR-3, in the assay on HCT-116, in the assay with M14, in the assay with CCRF-CEM and in the assay on EKVX was > 100 µM (inactive) each time. Moreover, the GI50 in the assay on MOLT-4, in the assay on Malme-3M and with HT-29 was > 100 µM (inactive) each time.
Take `CC1(C)OC2OC(/C=C/[N+](=O)[O-])C3OC(C)(C)OC3C2O1` (stereo not drawn): the GI50 with IGROV-1 was 34.9 µM (inactive); in the assay on CAKI-1, 4.67 µM (inactive); in the assay with SN12C it was 15.6 µM (inactive); with COLO 205 it was 4.6 µM (inactive); in the assay with NCI-H522, 1.77 µM (inactive); in the assay with HCT-15, 2.25 µM. Moreover, the GI50 was 18.7 µM (inactive) in the assay with NCI-H23; 16.4 µM (inactive) in the assay with OVCAR-3; 9.06 µM (inactive) with HCT-116; 12.3 µM (inactive) in the assay on M14; 2.94 µM (inactive) in the assay on CCRF-CEM; 20.1 µM (inactive) in the assay with EKVX. For the same molecule, the GI50 is 3.01 µM (inactive) in the assay on MOLT-4, 5.35 µM (inactive) in the assay on Malme-3M and 17.2 µM (inactive) with HT-29.
As to `O=C(CCc1cc(-c2ccc(F)cc2)n[nH]1)N(Cc1ccccc1)Cc1ccccc1`, the GI50 in the assay with IGROV-1 is > 100 µM (inactive); with CAKI-1 it was > 100 µM (inactive); in the assay on SN12C it was > 100 µM (inactive); with COLO 205 it was > 100 µM (inactive); in the assay with NCI-H522 it was > 100 µM (inactive); in the assay with HCT-15, greater than 100 µM. The GI50 with NCI-H23, in the assay on OVCAR-3, in the assay on HCT-116, in the assay on M14, in the assay on CCRF-CEM and with EKVX was > 100 µM (inactive) each time. Also, the GI50 with MOLT-4, with Malme-3M and in the assay on HT-29 was > 100 µM (inactive) each time.
As for `CN(C)C(=O)CC(C(=O)O)c1c[nH]c2ccccc12` (stereo not drawn), the GI50 with IGROV-1 is > 100 µM (inactive); in the assay with CAKI-1, > 100 µM (inactive); in the assay on SN12C, > 100 µM (inactive); in the assay on COLO 205 it was > 100 µM (inactive); with NCI-H522, > 100 µM (inactive); in the assay on HCT-15 it was greater than 100 µM. For the same molecule, the GI50 in the assay with NCI-H23, with OVCAR-3, in the assay on HCT-116, with M14, with CCRF-CEM and in the assay on EKVX was > 100 µM (inactive) in each case. Also, the GI50 in the assay with MOLT-4, in the assay on Malme-3M and with HT-29 was > 100 µM (inactive) each time.
For the molecule `O=C(NC(CS)C(=O)O)c1c2ccccc2nc2ccccc12` (stereo not drawn), the GI50 was 38 µM (inactive) with IGROV-1; > 100 µM (inactive) with CAKI-1; > 100 µM (inactive) with SN12C; 23.9 µM (inactive) in the assay on PC-3; 4.55 µM (inactive) with COLO 205; 31.1 µM (inactive) in the assay with NCI-H522. For the same molecule, the GI50 is 12.8 µM in the assay on HCT-15; 11.2 µM (inactive) with NCI-H23; > 100 µM (inactive) in the assay with OVCAR-3; 13.6 µM (inactive) with HCT-116; > 100 µM (inactive) with M14; 61.7 µM (inactive) in the assay with CCRF-CEM. Moreover, the GI50 is 47.5 µM (inactive) in the assay with EKVX; 49.3 µM (inactive) in the assay on MCF7; 22.2 µM (inactive) in the assay with MOLT-4; 15.2 µM (inactive) in the assay on Malme-3M; 14.5 µM (inactive) in the assay on HT-29; 30.7 µM (inactive) in the assay on DU-145. Moreover, the GI50 in the assay with NCI/ADR-RES was 67.9 µM (inactive).
In the case of `N#Cc1c(-c2ccc(Cl)cc2)c(C#N)c(=O)n(NS(=O)(=O)c2ccccc2)c1-c1ccccc1`, the GI50 with CAKI-1 was > 25 µM (inactive); with SN12C, > 25 µM (inactive); with PC-3 it was > 25 µM (inactive); in the assay on COLO 205 it was > 25 µM (inactive); in the assay on HCT-15, greater than 25 µM; with HCT-116 it was > 25 µM (inactive). Further, the GI50 was > 25 µM (inactive) in the assay on M14, > 25 µM (inactive) in the assay with CCRF-CEM, 19.8 µM (inactive) with MCF7 and > 25 µM (inactive) in the assay with MOLT-4.
In the case of `COC1=C(C(=O)OC(C)(C)C)C23CCCCC2(C(C(=O)OC(C)(C)C)=C(OC)C3C(=O)OC(C)(C)C)C1C(=O)OC(C)(C)C` (stereo not drawn), the GI50 in the assay on IGROV-1 is 49.2 µM (inactive); in the assay with CAKI-1, > 100 µM (inactive); in the assay on SN12C, 38.2 µM (inactive); with COLO 205, 10.4 µM (inactive); in the assay with NCI-H522 it was 11.6 µM (inactive); with HCT-15, 15.2 µM. Moreover, the GI50 was 21.5 µM (inactive) in the assay with NCI-H23; 7.8 µM (inactive) with OVCAR-3; 14.2 µM (inactive) in the assay on HCT-116; 7.89 µM (inactive) in the assay with M14; 27.9 µM (inactive) in the assay with CCRF-CEM; 50.7 µM (inactive) with EKVX. The GI50 with MOLT-4 is 6.46 µM (inactive); with Malme-3M it was 55.8 µM (inactive); with HT-29 it was 18.5 µM (inactive).
As for `COc1c(C)c2c(c3c1c(=O)c1ccccc1n3C)C=CC(C)(C)O2`, the GI50 in the assay on IGROV-1 was 30.3 µM (inactive); with CAKI-1, 26.2 µM (inactive); in the assay on SN12C it was 30.2 µM (inactive); in the assay with COLO 205, 30.7 µM (inactive); in the assay with NCI-H522 it was 20.9 µM (inactive); in the assay with HCT-15 it was 18.2 µM. The GI50 with NCI-H23 was 27.1 µM (inactive); in the assay on OVCAR-3, 19.6 µM (inactive); in the assay with HCT-116, 18.5 µM (inactive); in the assay with M14 it was 15.5 µM (inactive); in the assay with CCRF-CEM it was 21.4 µM (inactive); in the assay on EKVX it was 47.1 µM (inactive). Besides, the GI50 with MOLT-4 was 19.5 µM (inactive); in the assay on Malme-3M, 25.8 µM (inactive); in the assay with HT-29 it was 14 µM (inactive).
As for `COc1ccc(C(C)Nc2cc(OC)c(OC)c(OC)c2)cc1` (stereo not drawn), the GI50 in the assay with IGROV-1 is 7.13 µM (inactive); with CAKI-1 it was 4.23 µM (inactive); in the assay on SN12C it was 7.71 µM (inactive); with COLO 205 it was 2.48 µM (inactive); with NCI-H522, 2.51 µM (inactive); with HCT-15, 3 µM. Also, the GI50 in the assay with NCI-H23 was 3.72 µM (inactive); in the assay on OVCAR-3 it was 2.69 µM (inactive); with HCT-116, 3.58 µM (inactive); in the assay with M14, 6.21 µM (inactive); in the assay on CCRF-CEM it was 3.29 µM (inactive); in the assay with EKVX it was > 24.9 µM (inactive). Also, the GI50 in the assay with MOLT-4 is 4.61 µM (inactive); in the assay on Malme-3M, 3.68 µM (inactive); in the assay on HT-29, 3.57 µM (inactive).
As for `CCC(/C(=N\Nc1c(Cl)cc(Cl)cc1Cl)c1ccccc1)n1ccnc1C` (stereo not drawn), the GI50 with IGROV-1 is 11 µM (inactive); in the assay with CAKI-1 it was 11 µM (inactive); in the assay with SN12C, 11.9 µM (inactive); in the assay on COLO 205, 11.6 µM (inactive); with NCI-H522, 4.55 µM (inactive); in the assay with HCT-15, 10.5 µM. Besides, the GI50 was 10.7 µM (inactive) with NCI-H23; 5.82 µM (inactive) in the assay with OVCAR-3; 7.05 µM (inactive) in the assay on HCT-116; 13.3 µM (inactive) in the assay on M14; 13 µM (inactive) with CCRF-CEM; 17.3 µM (inactive) in the assay on EKVX. In addition, the GI50 with MOLT-4 is 5.41 µM (inactive); with Malme-3M it was 11.7 µM (inactive); with HT-29, 8.05 µM (inactive).
Take `N#CCCN(CCC#N)c1ccc(C(Sc2ccccc2)C(NC(=O)c2cc([N+](=O)[O-])ccc2Cl)C(=O)Sc2ccccc2)cc1` (stereo not drawn): the GI50 in the assay on IGROV-1 is 1.92 µM (inactive); in the assay with CAKI-1 it was 1.45 µM (inactive); with SN12C, 1.88 µM (inactive); in the assay with COLO 205, 2.34 µM (inactive); in the assay on NCI-H522, 2.36 µM (inactive); in the assay with HCT-15 it was 3.45 µM. Further, the GI50 in the assay with NCI-H23 is 5.06 µM (inactive); in the assay on OVCAR-3, 2.56 µM (inactive); in the assay on HCT-116, 2.17 µM (inactive); in the assay with M14 it was 3.32 µM (inactive); in the assay with CCRF-CEM it was 0.172 µM (active); in the assay with EKVX it was 1.34 µM (inactive). The GI50 in the assay on MOLT-4 is 0.385 µM (active); in the assay with Malme-3M, 7.33 µM (inactive); with HT-29, 4.1 µM (inactive).
Regarding `O=C(O)CCC(=O)OCN1C(=O)C2C3C=CC(C2C1=O)C1C2C(=O)N(COC(=O)CCC(=O)O)C(=O)C2C31` (stereo not drawn), the GI50 in the assay on IGROV-1 was > 100 µM (inactive); in the assay with CAKI-1 it was > 100 µM (inactive); in the assay on SN12C, > 86.5 µM (inactive); with COLO 205 it was > 57.8 µM (inactive); in the assay with NCI-H522 it was > 47 µM (inactive); with HCT-15, 32.4 µM. Besides, the GI50 in the assay on NCI-H23 is > 100 µM (inactive); with OVCAR-3 it was > 100 µM (inactive); in the assay with HCT-116 it was > 37.8 µM (inactive); in the assay with M14, > 100 µM (inactive); with CCRF-CEM, 34 µM (inactive); with EKVX, > 100 µM (inactive). The GI50 with MOLT-4 is > 90.4 µM (inactive); with Malme-3M, > 100 µM (inactive); with HT-29, > 100 µM (inactive).
In the case of `CC(C)CCC[C@@H](C)C1CCC2[C@@H]3CCC4CC(CCC=C(c5cc(Cl)c(OC(=O)c6ccccc6)c(C(=O)O)c5)c5cc(Cl)c(OC(=O)c6ccccc6)c(C(=O)O)c5)CC[C@]4(C)C3CC[C@@]21C` (stereo partly drawn), the GI50 was 34.8 µM (inactive) with IGROV-1; > 100 µM (inactive) in the assay on CAKI-1; > 100 µM (inactive) with SN12C; > 100 µM (inactive) in the assay with PC-3; > 100 µM (inactive) in the assay with COLO 205; > 100 µM (inactive) in the assay with NCI-H522. Also, the GI50 in the assay on HCT-15 is 46.1 µM; in the assay with NCI-H23, > 100 µM (inactive); with OVCAR-3 it was 74.8 µM (inactive); with HCT-116 it was > 100 µM (inactive); in the assay on M14 it was 15.8 µM (inactive); in the assay on CCRF-CEM, > 100 µM (inactive). The GI50 is 88.3 µM (inactive) in the assay with EKVX; > 100 µM (inactive) in the assay with MCF7; > 100 µM (inactive) in the assay with MOLT-4; 64.7 µM (inactive) with Malme-3M; > 100 µM (inactive) in the assay with HT-29; > 100 µM (inactive) in the assay with DU-145. Moreover, the GI50 with NCI/ADR-RES was > 100 µM (inactive).
